± gives the expanded uncertainty stated by the source.
Legend:
[1] = Molar enthalpy of transition or fusion; settings: Crystal; DSC
[2] = Crystal; DTA

Molar enthalpy of transition or fusion [1]: 13.9 ± 0.335 kcal/mol | Normal melting temperature [2]: 153.36 ± 1.1 °C
Compound: CCOC(=O)[C@H](CCc1ccccc1)N[C@@H](C)C(=O)O [((S)-1-ethoxy-1-oxo-4-phenylbutan-2-yl)-L-alanine]

From the NIST ThermoML archive (doi:10.1021/acs.jced.8b00333)
